Experimental data as given in patent US20260132127A1, “NOVEL SPIRO COMPOUND” (MITSUBISHI TANABE PHARMA CORPORATION, priority 2021, published 2026).

Target: T1, human TRH-DE (Homo sapiens, UniProt Q9UKU6)
T1 construct: expressed in transfected cells; host or cells: Expi 293 cells (transient expression), membrane fraction
T1 sequence (Q9UKU6 1-1069): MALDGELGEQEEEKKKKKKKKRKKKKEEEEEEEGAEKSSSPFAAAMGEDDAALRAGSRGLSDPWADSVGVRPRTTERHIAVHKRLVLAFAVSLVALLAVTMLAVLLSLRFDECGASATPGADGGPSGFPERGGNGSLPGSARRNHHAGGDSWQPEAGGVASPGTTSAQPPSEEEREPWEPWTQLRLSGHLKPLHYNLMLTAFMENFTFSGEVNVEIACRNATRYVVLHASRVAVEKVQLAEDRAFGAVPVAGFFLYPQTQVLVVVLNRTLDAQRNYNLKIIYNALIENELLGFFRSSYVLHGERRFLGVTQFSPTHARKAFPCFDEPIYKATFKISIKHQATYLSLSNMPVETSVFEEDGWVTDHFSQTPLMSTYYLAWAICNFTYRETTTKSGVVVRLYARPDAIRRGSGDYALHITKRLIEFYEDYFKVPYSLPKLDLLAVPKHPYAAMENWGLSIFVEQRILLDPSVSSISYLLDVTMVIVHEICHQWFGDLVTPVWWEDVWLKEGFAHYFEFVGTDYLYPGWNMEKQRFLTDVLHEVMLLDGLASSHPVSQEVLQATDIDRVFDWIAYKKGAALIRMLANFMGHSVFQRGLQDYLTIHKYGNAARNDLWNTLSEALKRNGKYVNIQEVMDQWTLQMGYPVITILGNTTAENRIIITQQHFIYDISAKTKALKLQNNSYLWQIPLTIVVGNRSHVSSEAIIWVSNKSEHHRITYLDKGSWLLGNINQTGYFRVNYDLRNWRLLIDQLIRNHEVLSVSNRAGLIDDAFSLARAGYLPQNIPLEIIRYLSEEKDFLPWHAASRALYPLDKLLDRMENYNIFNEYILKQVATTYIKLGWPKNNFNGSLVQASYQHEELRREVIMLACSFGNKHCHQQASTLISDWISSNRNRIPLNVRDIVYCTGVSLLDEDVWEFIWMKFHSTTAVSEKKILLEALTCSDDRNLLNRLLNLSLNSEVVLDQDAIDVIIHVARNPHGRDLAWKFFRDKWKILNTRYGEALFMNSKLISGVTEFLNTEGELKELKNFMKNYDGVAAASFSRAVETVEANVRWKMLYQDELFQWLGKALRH
Test: TRH-DE inhibition test (RapidFire MS measurement of product Cyclo (His-Pro))
Format: biochemical
Details: membrane fraction of Expi 293 cells expressing human TRH-DE; 10 μM TRH substrate; room temperature, 2 hours; 16-point concentration test
Procedure, shortened: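 Membrane fraction from Expi 293 cells transiently expressing human TRH-DE, at 4 μg/ml in phosphate buffer pH 7.4 with 200 μM bacitracin, reacted with compound and 10 μM substrate for 2 h at room temperature. Cyclo(His-Pro) measured by RapidFire MS against an isotope internal standard. IC50 from 16-point curves.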

Row | SMILES | IC50
1 | C[C@@H]1C=Cc2nc(C3(C(F)(F)F)CC3)sc2C(=O)N1C1CC2(C1)CN(S(=O)(=O)c1ccccc1F)C2 [Example 124] | 17 nM
2 | CC1COc2cnccc2C(=O)N1C1CC2(C1)CN(S(=O)(=O)c1ccccc1F)C2 (racemic) [Example 54] | 14 nM
3 | C[C@@H]1COc2cc(N3CCOCC3)ncc2C(=O)N1C1CC2(C1)CN(S(=O)(=O)c1ccccc1F)C2 [Example 134, (3R)-4-[2-(2-fluorophenyl)sulfonyl-2-azaspiro[3.3]heptan-6-yl]-3-methyl-8-morpholino-2,3-dihydropyrido[3,4-f][1,4]oxazepin-5-one] | 2 nM
4 | CCCN(C(=O)c1cccnc1OC)C1CC2(C1)CN(S(=O)(=O)c1cc(OC)ccc1F)C2 [Example 421] | 480 nM
5 | C[C@@H]1CCn2ncc(C3CC3)c2C(=O)N1C1CC2(C1)CN(S(=O)(=O)c1ccccc1F)C2 [Example 319] | 22 nM
6 | CC(=O)N1C[C@@H](C)N(C2CC3(C2)CN(S(=O)(=O)c2ccccc2F)C3)C(=O)c2ncccc21 [Example 302, (3R)-1-acetyl-4-[2-(2-fluorophenyl)sulfonyl-2-azaspiro[3.3]heptan-6-yl]-3-methyl-2,3-dihydropyrido[3,2-e][1,4]diazepin-5-one] | 47 nM
7 | C[C@@H]1CNc2ncc(C(F)(F)F)cc2C(=O)N1C1CC2(C1)CN(S(=O)(=O)c1ccccc1[N+](=O)[O-])C2 [Example 257] | 61 nM
8 | CC1(O)c2cc(F)cnc2C(=O)N1C1CC2(C1)CN(S(=O)(=O)c1ccccc1F)C2 (racemic) [Example 279] | 112 nM
9 | CC1CSc2nc(C(F)(F)F)ccc2C(=O)N1C1CC2(C1)CN(S(=O)(=O)c1ccccc1F)C2 (racemic) [Example 259, 4-[2-(2-fluorophenyl)sulfonyl-2-azaspiro[3.3]heptan-6-yl]-3-methyl-8-(trifluoromethyl)-2,3-dihydropyrido[3,2-f][1,4]thiazepin-5-one] | 152 nM
10 | CCCN(C(=O)c1cccnc1OC)C1CC2(C1)CN(S(=O)(=O)c1ccccc1F)C2 [Example 416] | 676 nM
11 | COCC1C(c2ccccc2)=CC(=O)N1C1CC2(C1)CN(S(=O)(=O)c1ccccc1F)C2 (stereo not drawn) [Example 422] | 218 nM
12 | CC1COc2ncccc2C(=O)N1C1CC2(C1)CN(S(=O)(=O)c1ccccc1)C2 (stereo not drawn) [Example 84, 4-[2-(benzenesulfonyl)-2-azaspiro[3.3]heptan-6-yl]-3-methyl-2,3-dihydropyrido[3,2-f][1,4]oxazepin-5-one] | 85 nM
13 | Cc1nc2c(s1)C(=O)N(C1CC3(C1)CN(S(=O)(=O)c1ccccc1F)C3)[C@H](C)C=C2 [Example 116] | 116 nM
14 | C[C@@H]1CCN(C(=O)c2ccccc2)CC(=O)N1C1CC2(C1)CN(S(=O)(=O)c1ccccc1F)C2 [Example 454] | 70 nM
15 | C[C@@H]1COCCC(=O)N1C1CC2(C1)CN(S(=O)(=O)c1ccccc1F)C2 [Example 460, (3R)-4-[2-(2-fluorophenyl)sulfonyl-2-azaspiro[3.3]heptan-6-yl]-3-methyl-1,4-oxazepan-5-one] | 424 nM
16 | Cc1nc2c(cc1C#N)C(=O)N(C1CC3(C1)CN(S(=O)(=O)c1ccccc1F)C3)[C@H](C)CO2 [Example 334] | 18 nM
17 | COc1cnc2c(n1)OC[C@@H](C)N(C1CC3(C1)CN(S(=O)(=O)c1ccccc1F)C3)C2=O [Example 166] | 5 nM
18 | CCC1c2ccccc2C(=O)N1C1CC2(C1)CN(S(=O)(=O)c1cc(C)ccc1F)C2 (racemic) [Example 273] | 63 nM
19 | CCc1nc2c(s1)C(=O)N(C1CC3(C1)CN(S(=O)(=O)c1ccccc1F)C3)C(C)CO2 (racemic) [Example 177] | 18 nM
20 | C[C@@H]1COc2nc(Cl)ncc2C(=O)N1C1CC2(C1)CN(S(=O)(=O)c1ccccc1F)C2 [Example 6] | 13 nM
21 | Cc1nn2c(c1C)C(=O)N(C1CC3(C1)CN(S(=O)(=O)c1ccccc1F)C3)[C@H](C)CC2 [Example 185] | 24 nM
22 | CCCN(C(=O)c1nc2ccccc2[nH]1)C1CC2(C1)CN(S(=O)(=O)c1cc(C)ccc1F)C2 [Example 431] | 347 nM
23 | C[C@@H]1COc2cc(N3CC(F)(F)C(F)(F)C3)ncc2C(=O)N1C1CC2(C1)CN(S(=O)(=O)c1ccccc1F)C2 [Example 147] | 1 nM
24 | C[C@@H]1CNc2cc(C(F)(F)F)cnc2C(=O)N1C1CC2(C1)CN(S(=O)(=O)c1ccccc1F)C2 [Example 254] | 2 nM

Row | SMILES | IC50
25 | C[C@@H]1COc2cc(C3CC3)ncc2C(=O)N1C1CC2(C1)CN(S(=O)(=O)c1ccccc1F)C2 [Example 313] | 1 nM
26 | C[C@@H]1COc2nc([C@H]3C[C@H]3F)sc2C(=O)N1C1CC2(C1)CN(S(=O)(=O)c1ccccc1F)C2 [Example 234, (6R)-2-[(1S,2R)-2-fluorocyclopropyl]-7-[2-(2-fluorophenyl)sulfonyl-2-azaspiro[3.3]heptan-6-yl]-6-methyl-5,6-dihydrothiazolo[5,4-f][1,4]oxazepin-8-one] | 4 nM
27 | C[C@@H]1CCN(CC2CC2)CC(=O)N1C1CC2(C1)CN(S(=O)(=O)c1ccccc1F)C2 [Example 443, (7R)-4-(cyclopropylmethyl)-1-[2-(2-fluorophenyl)sulfonyl-2-azaspiro[3.3]heptan-6-yl]-7-methyl-1,4-diazepan-2-one] | 157 nM
28 | CC[C@@H]1COc2ncccc2C(=O)N1C1CC2(C1)CN(S(=O)(=O)c1ccccc1F)C2 [Example 39] | 20 nM
29 | Cc1nc2c(s1)C(C)N(C1CC3(C1)CN(S(=O)(=O)c1ccccc1F)C3)C2=O (stereo not drawn) [Example 347] | 185 nM
30 | COc1ccc2c(n1)C(=O)N(C1CC3(C1)CN(S(=O)(=O)c1ccccc1F)C3)C2(C)O (racemic) [Example 281] | 120 nM
31 | C[C@@H]1COc2nc(N3CC[C@H](F)C3)ncc2C(=O)N1C1CC2(C1)CN(S(=O)(=O)c1ccccc1F)C2 [Example 169] | 1 nM
32 | CC1CCc2nc(C3(F)CC3)sc2C(=O)N1C1CC2(C1)CN(S(=O)(=O)c1ccccc1F)C2 (racemic) [Example 94] | 4 nM
33 | C[C@@H]1COc2nc(Cl)ccc2C(=O)N1C1CC2(C1)CN(S(=O)(=O)c1ccccc1F)C2 [Example 34] | 8 nM
34 | C[C@@H]1CCn2ncc(Br)c2C(=O)N1C1CC2(C1)CN(S(=O)(=O)c1ccccc1F)C2 [Example 195] | 35 nM
35 | C[C@@H]1Cn2c(Br)nc(C3CC3)c2C(=O)N1C1CC2(C1)CN(S(=O)(=O)c1ccccc1F)C2 [Example 298] | 25 nM
36 | CCCN(C(=O)c1ccccc1OC)C1CC2(C1)CN(S(=O)(=O)c1cccc(C)c1)C2 [Example 425] | 860 nM
37 | C[C@@H]1COc2cc(Cl)ncc2C(=O)N1C1CC2(C1)CN(S(=O)(=O)c1ccccc1F)C2 [Example 22] | 2 nM
38 | CO[C@H]1CCN(c2ncc3c(n2)OC[C@@H](C)N(C2CC4(C2)CN(S(=O)(=O)c2ccccc2F)C4)C3=O)C1 [Example 393] | 3 nM
39 | C[C@@H]1COc2nc(O[C@H]3CCOC3)ncc2C(=O)N1C1CC2(C1)CN(S(=O)(=O)c1ccccc1F)C2 [Example 377] | 14 nM
40 | C[C@@H]1CCc2nc(C(C)(F)F)sc2C(=O)N1C1CC2(C1)CN(S(=O)(=O)c1ccccc1F)C2 [Example 91] | 8 nM
41 | C[C@@H]1COc2nn(C3CC3)cc2C(=O)N1C1CC2(C1)CN(S(=O)(=O)c1ccccc1F)C2 [Example 210] | 21 nM
42 | Cc1nsc2c1C(=O)N(C1CC3(C1)CN(S(=O)(=O)c1ccccc1F)C3)[C@H](C)C=C2 [Example 127] | 21 nM
43 | CC1COc2ncccc2C(=O)N1C1CC2(C1)CN(S(=O)(=O)c1ccc(F)cc1)C2 (racemic) [Example 80] | 295 nM
44 | C[C@@H]1CCN(Cc2ccccc2)CC(=O)N1C1CC2(C1)CN(S(=O)(=O)c1ccccc1F)C2 [Example 446] | 171 nM
45 | C[C@@H]1CC[C@@H](C)N(C2CC3(C2)CN(S(=O)(=O)c2ccccc2F)C3)C(=O)C1 (racemic) [Example 437, (4R*,7R*)-1-[2-(2-fluorophenyl)sulfonyl-2-azaspiro[3.3]heptan-6-yl]-4,7-dimethylazepan-2-one] | 292 nM
46 | CC1c2cc(C(F)(F)F)cnc2C(=O)N(C2CC3(C2)CN(S(=O)(=O)c2ccccc2F)C3)C1C (racemic) [Example 106] | 14 nM
47 | C[C@@H]1COc2nc(N3CC(F)C3)ncc2C(=O)N1C1CC2(C1)CN(S(=O)(=O)c1ccccc1F)C2 [Example 399] | 5 nM
48 | C[C@@H]1C=Cc2oc(C3CC3)nc2C(=O)N1C1CC2(C1)CN(S(=O)(=O)c1ccccc1F)C2 [Example 128] | 224 nM
